# Measured values: PubChem BioAssay AID624024 (Broad Institute, 2012)
# Records with an inconclusive call do not appear. Calls of active or inactive are those of the source.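 How the source made its calls: active means fitted curve rises past 40% HDL binding increase at a concentration no higher than twice the top valid tested dose; inconclusive means no clear call, values can overlap the other calls; inactive means effects opposite to the expected rise, plus the rest.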
# Biological target: Scavenger receptor class B member 1 (Mus musculus) (UniProt Q61009)
# Sequence (Q61009 whole entry, looked up): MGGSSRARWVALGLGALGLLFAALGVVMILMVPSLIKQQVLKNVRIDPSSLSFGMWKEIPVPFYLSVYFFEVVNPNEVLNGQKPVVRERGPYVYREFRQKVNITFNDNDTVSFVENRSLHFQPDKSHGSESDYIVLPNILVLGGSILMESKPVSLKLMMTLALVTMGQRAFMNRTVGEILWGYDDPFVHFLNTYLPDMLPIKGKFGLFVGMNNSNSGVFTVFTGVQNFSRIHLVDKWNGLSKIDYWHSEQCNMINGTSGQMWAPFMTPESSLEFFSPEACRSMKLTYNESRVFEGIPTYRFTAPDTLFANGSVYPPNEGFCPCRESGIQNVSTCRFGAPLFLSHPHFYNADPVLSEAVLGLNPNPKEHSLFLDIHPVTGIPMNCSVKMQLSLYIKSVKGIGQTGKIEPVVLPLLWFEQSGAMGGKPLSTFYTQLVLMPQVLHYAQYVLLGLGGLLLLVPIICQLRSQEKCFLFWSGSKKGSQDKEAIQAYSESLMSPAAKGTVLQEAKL
# Test: SR-BI HDL particle binding change, fluorescent HDL – cell-based, ldlA[mSR-BI] CHO, Alexa 488-HDL, powder samples, set 3, orthogonal assay for SR-BI HDL uptake inhibitor project, dose response (AID 624024)
# Settings: ldlA[mSR-BI] CHO cells, Alexa488-HDL binding fluorescence, 3 h
row,AC40,SMILES
1,17500 nM,C[C@@H]1CN([C@H](C)CO)C(=O)c2cc(NC(=O)C3CCCCC3)ccc2O[C@H]1CN(C)C(=O)c1ccc(Cl)cc1
2,544 nM,CC(C)NC(=O)Nc1cccc2c1O[C@@H](CN(C)S(=O)(=O)c1ccc(Cl)cc1)[C@H](C)CN([C@H](C)CO)C2=O
3,1.76 nM,C[C@@H]1CN([C@H](C)CO)C(=O)c2cc(NC(=O)Cc3cn(C)c4ccccc34)ccc2O[C@H]1CN(C)S(=O)(=O)c1ccc(F)cc1
4,16.7 nM,C[C@H](C(=O)NC1CCCC1)N(C(=O)Cn1nnc(-c2ccc3c(c2)OCO3)n1)C1CCCCC1
5,33.2 nM,C[C@@H]1CN([C@H](C)CO)C(=O)c2cc(NC(=O)Nc3ccc(F)cc3)ccc2O[C@H]1CN(C)S(=O)(=O)c1ccc(Cl)cc1
6,3690 nM,CC(C)NC(=O)Nc1ccc2c(c1)C(=O)N([C@H](C)CO)C[C@@H](C)[C@@H](CN(C)S(=O)(=O)c1ccc(Cl)cc1)O2
7,138 nM,Cc1noc(C)c1S(=O)(=O)Nc1ccc2c(c1)C(=O)N([C@H](C)CO)C[C@@H](C)[C@H](CN(C)S(=O)(=O)c1ccc(Cl)cc1)O2
8,12.1 nM,CC(C)NC(=O)Nc1ccc2c(c1)C(=O)N([C@@H](C)CO)C[C@H](C)[C@H](CN(C)S(=O)(=O)c1ccc(Cl)cc1)O2
9,57.6 nM,CC(C)NC(=O)Nc1ccc2c(c1)C(=O)N([C@@H](C)CO)C[C@@H](C)[C@@H](CN(C)S(=O)(=O)c1ccc(Cl)cc1)O2
10,155 nM,CC(C)(C)OC(=O)N1CCN(c2ccc(NC(=O)c3cc([N+](=O)[O-])ccc3Cl)cc2)CC1
11,222 nM,C[C@@H]1CN([C@H](C)CO)C(=O)c2cc(NC(=O)C3CCCCC3)ccc2O[C@H]1CN(C)S(=O)(=O)c1ccccc1Cl
12,2.72 nM,CCCCCCC1CCC/C1=N\NC(N)=S (configuration not stated)
13,3670 nM,CCOc1cc2c3c(c1)C1(C(=O)N3C(C)(C)CC2C)C(C#N)=C(N)N2C(=C1C#N)Nc1ccccc12 (configuration not stated)
14,1870 nM,C=CCOC(=O)N(C)C[C@@H]1Oc2ccc(NC(=O)OCC3c4ccccc4-c4ccccc43)cc2C(=O)N([C@H](C)CO)C[C@H]1C
15,16.6 nM,CC(=O)Nc1ccc(Cl)c(C(=O)Nc2ccc(N3CCN(C(=O)OC(C)(C)C)CC3)cc2)c1
16,1970 nM,C[C@@H]1CN([C@H](C)CO)C(=O)c2cc(NC(=O)C3CCOCC3)ccc2O[C@H]1CN(C)S(=O)(=O)c1ccc(Cl)cc1

# Continued, compound first:
row,SMILES,AC40
1,C[C@@H]1CN([C@H](C)CO)C(=O)c2cc(NC(=O)Cc3cn(C)c4ccccc34)ccc2O[C@H]1CN(C)S(=O)(=O)c1ccc(Cl)cc1,4.61 nM
2,CC(C)NC(=O)Nc1ccc2c(c1)C(=O)N([C@@H](C)CO)C[C@H](C)[C@@H](CN(C)S(=O)(=O)c1ccc(Cl)cc1)O2,671 nM
3,CC(C)NC(=O)Nc1ccc2c(c1)C(=O)N([C@@H](C)CO)C[C@@H](C)[C@H](CN(C)S(=O)(=O)c1ccc(Cl)cc1)O2,20.3 nM
4,CC(C)CN(C(=O)COC(=O)C12CC3CC(CC(O)(C3)C1)C2)C1CCS(=O)(=O)C1 (configuration not stated),772 nM
5,COc1c(NC(=O)C(=O)c2ccc(OCCN3CCOCC3)c3ccccc23)cc(C(C)(C)C)cc1NS(C)(=O)=O,218 nM
6,C[C@@H]1CN([C@H](C)CO[Si](C)(C)C(C)(C)C)C(=O)c2cc(NC(=O)C3CCCCC3)ccc2O[C@H]1CN(C)C(=O)c1ccc(Cl)cc1,6330 nM
7,C[C@@H]1CN([C@H](C)CO)C(=O)c2cc(NC(=O)C3CCCCC3)ccc2O[C@H]1CN(C)S(=O)(=O)c1ccc(Cl)cc1,33.2 nM
8,C[C@@H]1CN([C@H](C)CO)C(=O)c2cc(NC(=O)C3CCCCC3)ccc2O[C@H]1CN(C)S(=O)(=O)c1cccc(Cl)c1,3040 nM
9,C=CCOC(=O)N(C)C[C@@H]1Oc2ccc(N)cc2C(=O)N([C@H](C)CO[Si](C)(C)C(C)(C)C)C[C@H]1C,3760 nM
10,COCC(=O)N1CCc2cc(-c3csc(NC(=O)c4cc(OC)cc(OC)c4)n3)ccc21,19.9 nM
11,CNC[C@@H]1Oc2ccc(NC(=O)NC(C)C)cc2C(=O)N([C@H](C)CO[Si](C)(C)C(C)(C)C)C[C@H]1C,3380 nM

# Same assay, conditions: ldlA[mSR-BI] CHO cells, Alexa488-HDL binding fluorescence, 3 h; at 35 µM (top of the series)
row,"HDL binding change, positive = increase",SMILES
1,4.51% (inactive),O=C1C2C3C=CC(C3)C2C(=O)N1c1cccc(N2C(=O)C3C4C=CC(C4)C3C2=O)n1 (configuration not stated)
2,37.2% (inactive),COc1ccc2c(c1)CC(C1(O)C(=O)N(C)c3ccccc31)C2=O (configuration not stated)
3,36% (inactive),Cc1ccc(OCc2cc(C(=O)N3CCCC(O)C3)no2)cn1 (configuration not stated)

# The remaining lines, values behind:
row,SMILES,"HDL binding change, positive = increase"
1,C=CCOC(=O)N(C)C[C@@H]1Oc2ccc(NC(=O)NC(C)C)cc2C(=O)N([C@H](C)CO[Si](C)(C)C(C)(C)C)C[C@H]1C,90.1% (inactive)
2,O=C(O)CC(C(=O)Nc1cccc(C(F)(F)F)c1)C1CCCO1 (configuration not stated),64.3% (inactive)
